Each structure is given as a SMILES string. Counter-ions that a name gives are not always drawn.

By melting point is commonly meant the temperature, or range, at which the solid turns liquid. In the case of `CCC(=O)N1CC2CC(C1)N2C/C=C(\C)c1ccccc1` (as salt: hydrochloride), the melting point lay within 123 to 125 °C.
The figure for `CCC(=O)N1CC2CC(C1)N2C/C=C(\CC)c1ccccc1` (as salt: hydrochloride) is 160 to 163 °C.

Values taken from patent publication US20070225492A1 (priority 2004, published 2007).
